Experimental data reported in article PMC9942557, “Bolaamphiphile Analogues of 12-bis-THA Cl2 Are Potent Antimicrobial Therapeutics with Distinct Mechanisms of Action against Bacterial, Mycobacterial, and Fungal Pathogens” (mSphere, 2022).

Columns and labels:
P. aeruginosa PAO1 = assay: Fixed-concentration (0.25× MIC bolalipid) synergy broth microdilution; format: cell-based, Pseudomonas aeruginosa; conditions: P. aeruginosa PAO1
P. aeruginosa NCTC 13437 = assay: as above; format: cell-based, Pseudomonas aeruginosa; conditions: P. aeruginosa NCTC 13437
[1] = in the presence of 0.25× MIC Octa-bola (Table S1)
[2] = in the presence of 0.25× MIC Octa-C10 (Table S1)

MIC of antibiotic (P. aeruginosa PAO1; No bola (Table S1)) [µg/mL] | MIC of antibiotic (P. aeruginosa PAO1; [1]) [µg/mL] | MIC of antibiotic (P. aeruginosa NCTC 13437; No bola (Table S1)) [µg/mL] | MIC of antibiotic (P. aeruginosa NCTC 13437; [2]) [µg/mL] | MIC of antibiotic (P. aeruginosa NCTC 13437; [1]) [µg/mL] | MIC of antibiotic (P. aeruginosa PAO1; [2]) [µg/mL] | Compound
> 512 | > 512 | > 512 | > 512 | > 512 |  | CC1(C)S[C@@H]2[C@H](NC(=O)[C@H](N)c3ccccc3)C(=O)N2[C@H]1C(=O)O [Ampicillin]
2 | 2 | > 128 | > 128 | > 128 |  | CC(C)(O/N=C(\C(=O)N[C@@H]1C(=O)N2C(C(=O)[O-])=C(C[n+]3ccccc3)CS[C@H]12)c1csc(N)n1)C(=O)O [Ceftazidime]
0.125 | 1 | 32 | > 64 | > 64 | 1 | O=C(O)c1cn(C2CC2)c2cc(N3CCNCC3)c(F)cc2c1=O [Ciprofloxacin]
32 | 128 | > 256 | > 256 | > 256 | 64 | C[C@H]1c2cccc(O)c2C(=O)C2=C(O)[C@]3(O)C(=O)C(C(N)=O)=C(O)[C@@H](N(C)C)[C@@H]3[C@@H](O)[C@@H]21 [Doxycyline]
